PMC5622107, “Small molecule inhibition of cGAS reduces interferon expression in primary macrophages from autoimmune mice” (Nature Communications, 2017)
Like-named read-outs stand apart in the source and are kept apart here.

Biological target: T1, mouse cGAS (Mus musculus, UniProt Q8C6L5)
T1 construct: recombinant full-length mouse cGAS in reaction buffer; His6-SUMO (N, cleaved yes); made in house; host or cells: E. coli BL21(DE3) RIL
Experiment: RapidFire mass spectrometry (RF-MS) cGAS enzymatic assay, cGAMP product formation
Format: biochemical
Conditions: for IC50: read-out: IC50; for effect of structural modification on cGAS inhibitory potency: compared with RU.365
Protocol: The liquid was collected at the well bottom using centrifugation for 30 s at 180×g. […] Plates were centrifuged for 30 s at 180×g to collect all liquid at the bottom of the wells. […] The reaction was stopped by addition of 65 µl of 0.5% (v/v) formic acid per well. The plates were centrifuged for 30 s at 180×g and sealed with a Velocity11 PlateLoc thermal plate sealer.
The solvent used for loading/washing process was an aqueous solution of 5 mM ammonium acetate, pH 10. […] Each sample of approximately 35 µl were aspirated from a 384-well plate and separated using a Graphitic carbon Type D cartridge. After each sample was loaded onto the cartridge it was washed for 4 s at 1.5 ml min^−1 using the aqueous solvent. ATP, GTP and cGAMP were eluted for 5 s using the organic solvent at a flow rate of 1.5 ml min^−1. The cartridge was then re-equilibrated with the aqueous solvent for 5 s at a flow rate of 1.5 ml min^−1. All samples were analyzed using a negative ionization mode in the mass spectrometer, with a gas temperature of 350 °C, nebulizer pressure of 35 psig, gas flow rate of 15 l min^−1. […] The Agilent RapidFire Integrator software was used to calculate the area under the curve (AUC) of the extracted ion counts for each analyte. Data points represent values of product formation. Catalytic rates expressed as percent product formation were calculated using the AUC of cGAMP and using the AUC’s of ATP and GTP to normalize for variations in the capacity of the solid phase extraction column during a screening run, as shown in the following formula: product formation (%) = [(AUCcGAMP × 100)/(AUCcGAMP + ½ AUCATP + ½ AUCGTP)].
To determine the percent inhibition of mouse cGAS the data was normalized against the positive control (column 24) and negative control (column 23). […] The quality of the screen was assessed by Z′ factor[57] calculated as follows: Z′ = 1−[3∗(standard deviation positive control + standard deviation negative control)/(average positive control—average negative control)].

[1] = Supplementary Table 4, analogs of RU166365, m-cGAS inhibition
[2] = Supplementary Table 3, analogs more potent than RU166365

T1 sequence (Q8C6L5 whole entry): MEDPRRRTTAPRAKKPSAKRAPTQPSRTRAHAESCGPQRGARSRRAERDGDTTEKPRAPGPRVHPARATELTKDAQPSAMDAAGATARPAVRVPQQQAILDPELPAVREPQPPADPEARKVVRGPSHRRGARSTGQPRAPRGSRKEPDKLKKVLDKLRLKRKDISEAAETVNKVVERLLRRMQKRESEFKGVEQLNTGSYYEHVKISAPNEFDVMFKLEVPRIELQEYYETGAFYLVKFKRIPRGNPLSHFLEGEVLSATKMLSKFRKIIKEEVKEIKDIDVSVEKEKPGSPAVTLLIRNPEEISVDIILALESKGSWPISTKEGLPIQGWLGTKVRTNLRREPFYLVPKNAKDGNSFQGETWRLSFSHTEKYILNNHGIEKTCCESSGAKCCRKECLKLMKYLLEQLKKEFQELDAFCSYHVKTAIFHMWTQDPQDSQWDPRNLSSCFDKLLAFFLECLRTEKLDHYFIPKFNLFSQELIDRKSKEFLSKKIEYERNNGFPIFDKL

## Cc1nn(-c2nc3ccccc3s2)c(O)c1C1NC(=O)c2ccccc21 (stereo not shown) [RU320466]
[1]
  IC50: > 25 µM

## Cc1nn(-c2nc3cccc(Br)c3[nH]2)c(O)c1C1OC(=O)c2ccccc21 (stereo not shown) [RU320467]
[2]
  IC50: 0.38 µM
  effect of structural modification on cGAS inhibitory potency: increased inhibitory potency

## COc1ccc2c(c1)C(=O)OC2c1c(C)nn(-c2nc3ccccc3[nH]2)c1O (stereo not shown) [RU320468]
[2]
  IC50: 1.43 µM
  effect of structural modification on cGAS inhibitory potency: only minor variations in potency

## Cc1nn(-c2nc3ccccc3[nH]2)c(O)c1C1OC(=O)c2cc(Br)ccc21 (stereo not shown) [RU320469]
[2]
  IC50: 1.32 µM
  effect of structural modification on cGAS inhibitory potency: only minor variations in potency

## Cc1nn(-c2nc3ncccc3[nH]2)c(O)c1C1OC(=O)c2ccccc21 (stereo not shown) [RU320502]
[1]
  IC50: 11 µM

## COc1cccc2c1C(c1c(C)nn(-c3nc4ccccc4[nH]3)c1O)OC2=O (stereo not shown) [RU320503]
[1]
  IC50: > 25 µM

## Cc1nn(-c2nc3ccccc3[nH]2)c(O)c1C1OC(=O)c2cccc(Br)c21 (stereo not shown) [RU320504]
[1]
  IC50: 19.6 µM

## COC(=O)c1cccc2c1C(=O)OC2c1c(C)nn(-c2nc3ccccc3[nH]2)c1O (stereo not shown) [RU320511]
[1]
  IC50: 6.84 µM

## COC(=O)c1ccc2c(c1)C(c1c(C)nn(-c3nc4ccccc4[nH]3)c1O)OC2=O (stereo not shown) [RU320512]
[1]
  IC50: 8.58 µM

## COC(=O)c1cccc2c1C(c1c(C)nn(-c3nc4ccccc4[nH]3)c1O)OC2=O (stereo not shown) [RU320513]
[1]
  IC50: > 25 µM

## CC(C)c1c(C2OC(=O)c3ccccc32)c(O)nn1-c1nc2ccccc2[nH]1 (stereo not shown) [RU320514]
[1]
  IC50: > 25 µM

## CC(C)c1nn(-c2nc3ccccc3[nH]2)c(O)c1C1OC(=O)c2ccccc21 (stereo not shown) [RU320515]
[1]
  IC50: 7.16 µM

## Cc1nn(-c2nc3ccccc3[nH]2)c(O)c1C1OC(=O)c2cccc(C(=O)O)c21 (stereo not shown) [RU320516]
[1]
  IC50: > 25 µM

## CC(=O)N1CCc2c(c(C)nn2-c2nc3ccccc3[nH]2)C1c1ccccc1 (stereo not shown) [RU320517]
[1]
  IC50: > 25 µM

## CC(=O)N1CCc2nn(-c3nc4ccccc4[nH]3)c(C)c2C1c1ccccc1 (stereo not shown) [RU320518]
[1]
  IC50: > 25 µM

## Cc1nn(-c2nc3cccc(C)c3[nH]2)c(O)c1C1OC(=O)c2ccccc21 (stereo not shown) [RU320519]
[2]
  IC50: 1.16 µM
  effect of structural modification on cGAS inhibitory potency: increased inhibitory potency

## Cc1nn(-c2nc3cccc(Cl)c3[nH]2)c(O)c1C1OC(=O)c2ccccc21 (stereo not shown) [RU320520]
[2]
  IC50: 0.62 µM
  effect of structural modification on cGAS inhibitory potency: increased inhibitory potency

## Cc1nn(-c2ncc(-c3ccccc3)[nH]2)c(O)c1C1OC(=O)c2ccccc21 (stereo not shown) [RU320574]
[1]
  IC50: > 25 µM

## Cc1nn(-c2nc3cccc(-c4ccccc4)c3[nH]2)c(O)c1C1OC(=O)c2ccccc21 (stereo not shown) [RU320575]
[1]
  IC50: 2.35 µM

## Cc1nn(-c2nc3ccc(C(=O)O)cc3[nH]2)c(O)c1C1OC(=O)c2ccccc21 (stereo not shown) [RU320577]
[1]
  IC50: 18 µM

## Cc1nn(-c2nc3ccc(-c4ccccc4)cc3[nH]2)c(O)c1C1OC(=O)c2ccccc21 (stereo not shown) [RU320578]
[1]
  IC50: 3.36 µM

## COC(=O)Cc1cccc2c1C(=O)OC2c1c(C)nn(-c2nc3ccccc3[nH]2)c1O (stereo not shown) [RU320579]
[1]
  IC50: 2.46 µM

## Cc1nn(-c2nc3cccc(C(F)(F)F)c3[nH]2)c(O)c1C1OC(=O)c2ccccc21 (stereo not shown) [RU320581]
[1]
  IC50: 3.3 µM

## Cc1nn(-c2nc3cc(Cl)cc(Cl)c3[nH]2)c(O)c1C1OC(=O)c2ccccc21 (stereo not shown) [RU320582]
[2]
  IC50: 0.12 µM
  effect of structural modification on cGAS inhibitory potency: increased inhibitory potency
Relative to RU.365
  improvement in potency: 17 fold
